Test results taken from patent US11384060B2, “Amide compounds and use thereof” (ALPHALA CO., LTD., priority 2017, dated 2022).
Where two headings read alike, the source gives them in different places.

How the values were obtained:
glucagon receptor (GCGR) = target: T1, glucagon receptor (GCGR) (Homo sapiens, UniProt P47871); assay: I125-glucagon binding assay (competition, GCGR membrane fractions)
T1 construct: expressed in transfected cells; host or cells: CHO-K1 cells overexpressing GCGR (membrane fractions)
Procedure, shortened: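 Competition of 0.0625 nM (final) I^125-glucagon for 30 min at 25° C, after 5 min compound preincubation, using 7.5 μg/well GCGR-overexpressing CHO-K1 membranes in 50 mM Tris pH 7.4, 0.5% BSA. Filtration onto PEI-coated GF/B, micro-beta counting, and non-linear regression gave IC50.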

[1] = target: T2, glucagon receptor (GCGR) overexpressed CHO-K1 cells or human primary hepatocytes (Homo sapiens, UniProt P47871); assay: Glucagon cAMP inhibition assay (Cisbio cAMP Dynamic 2 HTRF); assay type: cell-based
T2 construct: expressed in transfected cells; host or cells: GCGR overexpressed CHO-K1 cells or human primary hepatocytes (endogenous receptor)
Procedure, shortened: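 HTRF read-out of glucagon-induced cAMP, with IC50 from non-linear regression. Cells (GCGR CHO-K1 or human primary hepatocytes) in HBSS/0.1% BSA/800 nM IBMX took compound dilutions for 30 min (final DMSO 1%), then EC50-level glucagon for 30 min at room temperature, then a 60 min lysis/detection step.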

[2] = competition with I125-glucagon 0.0625 nM, membrane fractions of GCGR overexpressed CHO-K1 cells
[3] = inhibition of glucagon (EC50 concentration) induced cAMP production

T2 sequence (P47871 26-477): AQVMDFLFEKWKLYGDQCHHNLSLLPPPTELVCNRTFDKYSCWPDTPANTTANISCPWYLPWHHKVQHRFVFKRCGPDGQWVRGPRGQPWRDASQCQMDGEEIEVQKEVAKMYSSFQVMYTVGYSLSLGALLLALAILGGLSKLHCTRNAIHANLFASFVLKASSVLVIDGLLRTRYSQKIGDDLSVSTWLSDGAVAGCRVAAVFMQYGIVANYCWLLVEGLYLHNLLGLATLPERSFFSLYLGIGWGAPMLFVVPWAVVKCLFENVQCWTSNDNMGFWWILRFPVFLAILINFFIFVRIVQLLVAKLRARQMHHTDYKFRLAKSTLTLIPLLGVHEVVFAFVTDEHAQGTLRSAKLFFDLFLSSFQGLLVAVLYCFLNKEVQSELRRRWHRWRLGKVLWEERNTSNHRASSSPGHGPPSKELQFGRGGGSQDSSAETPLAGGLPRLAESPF
T1 sequence (P47871 26-477): as above

| SMILES | IC50 (glucagon receptor (GCGR); [2]) | IC50 cAMP [1, 3] | IC50 cAMP [1] | IC50 (glucagon receptor (GCGR)) | other results |
| --- | --- | --- | --- | --- | --- |
| COc1cc(OC[C@@H](Nc2ccc(C(=O)NCCC(=O)O)cc2)C(C)C)ccc1-c1ccc(C(F)(F)F)cc1 [Compound 13-10, (S)-3-(4-((1-((2-methoxy-4′-(trifluoromethyl)-[1,1′-biphenyl]-4-yl)oxy)-3-methylbutan-2-yl)amino)benzamido)propanoic Acid] | 0.092 µM | 0.246 µM |  |  |  |
| CC(C)[C@@H](COc1ccc(-c2nc3ccccc3o2)cc1)Nc1ccc(C(=O)NCCC(=O)O)cc1 [Compound 1-48, (S)-3-(4-((1-(4-(benzo[d]oxazol-2-yl)phenoxy)-3-methylbutan-2-yl)amino)benzamido)propanoic Acid] | 0.138 µM | 0.546 µM |  |  |  |
| CC(C)[C@@H](COc1ccc(-c2ccc(F)cc2)nn1)Nc1ccc(C(=O)NCCC(=O)O)cc1 [Compound 17-10, (S)-3-(4-((1-((6-(4-fluorophenyl)pyridazin-3-yl)oxy)-3-methylbutan-2-yl)amino)benzamido)propanoic Acid] | 2.3 µM | >30 µM |  |  |  |
| O=C(O)CCNC(=O)c1ccc(N[C@@H](Cc2ccccc2)C(=O)Nc2ccc(-c3cc4ccccc4o3)cc2)cc1 [Compound 23-8, (S)-3-(4-((1-((4-(benzofuran-2-yl)phenyl)amino)-1-oxo-3-phenylpropan-2-yl)amino)benzamido)propanoic Acid] |  |  | 2 µM |  | IC50 (glucagon receptor (GCGR); uM): > 10 µM |
| CC[C@H](C)[C@@H](COc1cc(C)c(-c2ccc(C(F)(F)F)cc2)c(C)c1)Nc1ccc(C(=O)NCCC(=O)O)cc1 [Compound 2-10, 3-(4-(((2S,3S)-1-((2,6-dimethyl-4′-(trifluoromethyl)-[1,1′-biphenyl]-4-yl)oxy)-3-methylpentan-2-yl)amino)benzamido)propanoic Acid] | 0.09 µM | 0.2414 µM |  |  |  |
| CC[C@H](C)[C@@H](COc1ccc(-c2ccc(Cl)cc2Cl)c(C)n1)Nc1ccc(C(=O)NCCC(=O)O)cc1 [Compound 18-5, 3-(4-(((2S,3S)-1-((5-(2,4-dichlorophenyl)-6-methylpyridin-2-yl)oxy)-3-methylpentan-2-yl)amino)benzamido)propanoic Acid] |  |  | 0.151 µM | 0.165 µM |  |
| O=C(O)CCNC(=O)c1ccc(N[C@H](Cc2ccc(-c3ccc(Cl)cc3Cl)cc2)C(=O)Nc2ccc(C(F)(F)F)cc2)cc1 [Compound 24-18, (R)-3-(4-((3-(2′,4′-dichloro-[1,1′-biphenyl]-4-yl)-1-oxo-1-((4-(trifluoromethyl)phenyl)amino)propan-2-yl)amino)benzamido)propanoic Acid] |  |  | 1.51 µM | 0.239 µM |  |
| CCN(c1ccc(C(=O)NCCC(=O)O)cc1)[C@H](COc1ccc(-c2cc3ccccc3o2)cc1)C(C)C [Compound 6-2, (S)-3-(4-((1-(4-(benzofuran-2-yl)phenoxy)-3-methylbutan-2-yl)(ethyl)amino)benzamido)propanoic Acid] | 0.645 µM | 0.1643 µM |  |  |  |
| CC[C@H](C)[C@@H](COc1cc(C)c(-c2cc3ccccc3o2)c(C)c1)Nc1ccc(C(=O)NCCC(=O)O)cc1 [Compound 2-7, 3-(4-(((2S,3S)-1-(4-(benzofuran-2-yl)-3,5-dimethylphenoxy)-3-methylpentan-2-yl)amino)benzamido)propanoic Acid] | 0.158 µM | 0.468 µM |  |  |  |
| CC[C@H](C)[C@H](Nc1ccc(C(=O)NCCC(=O)O)cc1)C(=O)Nc1ccc2cc(OC)ccc2c1 [Compound 24-8, 3-(4-(((2S,3S)-1-((6-methoxynaphthalen-2-yl)amino)-3-methyl-1-oxopentan-2-yl)amino)benzamido)propanoic Acid] |  |  |  | 1.03 µM | IC50 cAMP ([1]; uM): >10 µM |
| CC(C)C[C@@H](COc1cnc(-c2cc3ccccc3o2)nc1)Nc1ccc(C(=O)NCCC(=O)O)cc1 [Compound 12-3, (S)-3-(4-((1-((2-(benzofuran-2-yl)pyrimidin-5-yl)oxy)-4-methylpentan-2-yl)amino)benzamido)propanoic Acid] | 0.608 µM | >30 µM |  |  |  |
| CC(C)[C@@H](COc1ccc(-c2cc(Cl)cc(Cl)c2)c(F)c1)Nc1ccc(C(=O)NCCC(=O)O)cc1 [Compound 8-12, (S)-3-(4-((1-((3′,5′-dichloro-2-fluoro-[1,1′-biphenyl]-4-yl)oxy)-3-methylbutan-2-yl)amino)benzamido)propanoic Acid] | 0.227 µM | 1.243 µM |  |  |  |
| CC(C)[C@H](Nc1ccc(C(=O)NCCS(=O)(=O)O)cc1)C(=O)Nc1ccc(-c2cc3ccccc3o2)cc1 [Compound 23-34, (S)-2-(4-((1-((4-(benzofuran-2-yl)phenyl)amino)-3-methyl-1-oxobutan-2-yl)amino)benzamido)ethane-1-sulfonic Acid] |  |  | 75.611 µM | 2.57 µM |  |
| CCCC[C@@H](COc1ccc(-c2cc3ccccc3o2)c(Cl)c1)Nc1ccc(C(=O)NCCC(=O)O)cc1 [Compound 3-10, (S)-3-(4-((1-(4-(benzofuran-2-yl)-3-chlorophenoxy)hexan-2-yl)amino)benzamido)propanoic Acid] | 0.02 µM | 0.0887 µM |  |  |  |
| COc1cc(OC[C@@H](Nc2ccc(C(=O)NCCC(=O)O)cc2)C(C)C)ccc1-c1cc2ccccc2o1 [Compound 13-5, (S)-3-(4-((1-(4-(benzofuran-2-yl)-3-methoxyphenoxy)-3-methylbutan-2-yl)amino)benzamido)propanoic Acid] | 0.111 µM | 0.112 µM |  |  |  |
| CC(C)[C@@H](COc1ccc(-c2ccc(N(C)C)cc2Cl)cc1)Nc1ccc(C(=O)NCCC(=O)O)cc1 [Compound 1-37, (S)-3-(4-((1-((2′-chloro-4′-(dimethylamino)-[1,1′-biphenyl]-4-yl)oxy)-3-methylbutan-2-yl)amino)benzamido)propanoic Acid] | 0.372 µM | 0.376 µM |  |  |  |
| CC[C@H](C)[C@@H](COc1ccc(-c2nnc(-c3ccccc3)o2)cc1)Nc1ccc(C(=O)NCCC(=O)O)cn1 [Compound 4-5, 3-(6-(((2S,3S)-3-methyl-1-(4-(5-phenyl-1,3,4-oxadiazol-2-yl)phenoxy)pentan-2-yl)amino)nicotinamido)propanoic Acid] | 0.708 µM | 11.2 µM |  |  |  |
| CC(C)C[C@@H](COc1ccc(-c2ccc(C(F)(F)F)cc2Cl)cn1)Nc1ccc(C(=O)NCCS(=O)(=O)O)cc1 [Compound 15-18] |  |  | >30 µM | 1.31 µM |  |
| O=C(O)CCNC(=O)c1ccc(N[C@@H](Cc2ccc3ccccc3c2)C(=O)Nc2ccc(-c3cc4ccccc4o3)cc2)cc1 [Compound 23-22, (S)-3-(4-((1-((4-(benzofuran-2-yl)phenyl)amino)-3-(naphthalen-2-yl)-1-oxopropan-2-yl)amino)benzamido)propanoic Acid] |  |  | 32.1 µM |  | IC50 (glucagon receptor (GCGR); uM): > 10 µM |
| CCCC[C@H](Cc1ccc(-c2ccc(C(C)(C)C)cc2)cc1)Nc1ccc(C(=O)NCCC(=O)O)cc1 [Compound 19-7, (R)-3-(4-((1-(4′-(tert-butyl)-[1,1′-biphenyl]-4-yl)hexan-2-yl)amino)benzamido)propanoic Acid] |  |  | 0.731 µM | 0.299 µM |  |
